Assay results taken from patent US20250092043A1, “Kinase Inhibitors and Degraders” (Incyte Corporation, priority 2023, published 2025).

The compounds below were run against T1, JAK2 (Homo sapiens, UniProt O60674, V617F) (assay: Western blot quantitation of JAK2 degradation in SET2 cells). Conditions: 5 μM compound, 8 hours treatment, western blot densitometry vs. DMSO vehicle.
T1 construct: their effect on JAK2 protein degradation in SET2 cells; host or cells: SET2 cells (human essential thrombocythemia)
T1 sequence (O60674 whole entry V617F): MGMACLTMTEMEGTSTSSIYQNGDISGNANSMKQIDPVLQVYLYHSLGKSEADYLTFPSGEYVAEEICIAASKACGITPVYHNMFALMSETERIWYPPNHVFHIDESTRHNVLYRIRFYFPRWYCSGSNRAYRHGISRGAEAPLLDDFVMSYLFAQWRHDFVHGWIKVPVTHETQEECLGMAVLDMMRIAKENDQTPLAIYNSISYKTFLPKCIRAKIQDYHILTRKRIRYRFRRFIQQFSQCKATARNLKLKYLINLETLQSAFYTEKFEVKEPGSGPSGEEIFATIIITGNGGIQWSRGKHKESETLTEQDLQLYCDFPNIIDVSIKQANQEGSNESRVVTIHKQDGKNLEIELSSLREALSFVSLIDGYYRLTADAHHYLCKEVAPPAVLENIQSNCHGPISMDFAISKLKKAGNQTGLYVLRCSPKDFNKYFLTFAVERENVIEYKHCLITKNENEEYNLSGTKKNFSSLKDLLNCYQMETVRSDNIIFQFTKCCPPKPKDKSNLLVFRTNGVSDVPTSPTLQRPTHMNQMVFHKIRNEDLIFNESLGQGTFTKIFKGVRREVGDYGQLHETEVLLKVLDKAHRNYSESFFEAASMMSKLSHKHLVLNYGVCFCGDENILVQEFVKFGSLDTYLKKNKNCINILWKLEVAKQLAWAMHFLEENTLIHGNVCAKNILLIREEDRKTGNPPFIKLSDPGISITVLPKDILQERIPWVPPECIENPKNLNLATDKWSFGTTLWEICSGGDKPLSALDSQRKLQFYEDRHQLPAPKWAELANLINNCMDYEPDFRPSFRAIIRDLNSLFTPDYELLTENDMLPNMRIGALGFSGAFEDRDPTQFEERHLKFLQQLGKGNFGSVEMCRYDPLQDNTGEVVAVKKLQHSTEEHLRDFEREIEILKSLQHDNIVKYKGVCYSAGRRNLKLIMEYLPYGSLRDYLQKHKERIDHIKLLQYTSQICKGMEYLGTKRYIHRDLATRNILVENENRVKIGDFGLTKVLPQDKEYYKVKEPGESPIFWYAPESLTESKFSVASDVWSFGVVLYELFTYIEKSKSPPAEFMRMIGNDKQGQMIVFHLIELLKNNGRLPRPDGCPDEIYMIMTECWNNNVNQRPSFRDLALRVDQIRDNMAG
Assay type: cell-based
Description: Example E. Western Blot Analysis of JAK2 Dependent SET2 Cells Treated with Compounds of the Present Disclosure
SET2 cells (DSMZ, catalog number ACC 608) are isolated from a person with human essential thrombocythemia and carry the JAK2 V617F mutation.
SET2 cells were cultured in RPMI culture medium (Gibco, catalog number 11875085) supplemented with 1% penicillin-streptomycin-glutamine (Thermo Fisher Scientific, catalog number 10378016) and 20% fetal bovine serum (Gibco, catalog number 10438034). Cultured cells were maintained at 37° C., 5% CO2 in the incubator.
Approximately 1,000,000 cells/well were added in 6-well plate containing 1.5 ml culture media with specified concentrations of compounds of the present disclosure or DMSO control. Cells were treated with concentrations of 10 uM, 5 uM, 1 uM, and 0.5 uM. Proteasome inhibitor MG-132 (Cell signaling, catalog number 2194) was added at 20 uM to an additional 10 uM compound treatment. The treatment period was 8 hours. After 8 hours, cells were collected in 1.5 mL microcentrifuge tubes. Tubes were centrifuged at 1500 rpm for 5 min. Supernatant was aspirated and samples were washed with 1 mL of cold PBS. The samples were centrifuged again at 1500 rpm for 5 min, supernatant was aspirated. The sample pellets were lysed using 150 μL of 1× lysing buffer (Cell Signaling Technologies—catalog number 9803S) supplemented with 1× Halt™ Protease and Phosphatase Inhibitor Cocktail (Thermo Fisher Scientific—catalog number 78447). Using Pierce™ BCA Protein Assay Kit (Thermo Fisher Scientific—catalog number 23225), protein concentration of the samples were quantitated. After normalizing sample concentration to approximately 20 ug/well, samples were loaded onto 4-12% Tris-glycine gels. Gels were transferred to nitrocellulose membranes using iBlot 2 Dry Blotting System and iBlot™ 2 Transfer Stacks, nitrocellulose (Thermo Fisher Scientific—catalog number IB23001). Following transfer, membranes were blocked with StartingBlock (Thermo Fisher Scientific—catalog number 37543). After 1 hour of blocking membranes, they were probed for JAK2, pSTAT5, STAT5, CRBN, and GAPDH (Cell Signaling—catalog numbers 3230, 4322, 25656, 71810, and 5174 respectively).
Compounds of the present disclosure were screened at various concentrations to determine their effect on JAK2 protein degradation in SET2 cells, using methods as described above. DMSO was used as the vehicle control with no PROTAC® added. Co-administration of 20 μM of the proteasome inhibitor MG-132 with the PROTAC® compound at its highest concentration (i.e., 5 or 10 μM) tested was conducted to support the hypothesis that the degradation was driven by the ubiquitin-proteosome system (UPS). Degradation was evaluated by western blot densitometry quantitation using the FluorChem M instrument software to analyze the intensity of the JAK2 band signal at various concentrations of PROTAC® compound vs. the JAK2 band signal of the DMSO vehicle. It is noted that ˜82% of JAK2 exists as the V617F mutant, with the remaining 18% of JAK2 being WT. Therefore, if the V617F mutant JAK2 is selectively degraded over the WT, the maximum degradation is ˜80%. Degradation was graded as A: […]; B: ≥40% to <60% degradation; C: ≥20% to <40% degradation, D: <20% to ≥10%; E<10%. ** refers to degradation at 0.5 μM.

Compound | JAK2 % Degradation in SET2
COC(=O)N[C@@H]1CC[C@@H](n2c(=O)n(C)c3cnc4[nH]c(-c5ccc(C(=O)N6CCC(C(=O)N7CCN(c8cccc9c8C(=O)N(C8CCC(=O)NC8=O)C9=O)CC7)CC6)cc5)c(-c5ccc6c(cnn6C(C)C)c5)c4c32)C1 (stereo partly drawn) [Example 37, methyl ((1R,3R)-3-(7-(4-(4-(4-(2-(2,6-dioxopiperidin-3-yl)-1,3-dioxoisoindolin-4-yl)piperazine-1-carbonyl)piperidine-1-carbonyl)phenyl)-8-(1-isopropyl-1H-indazol-5-yl)-3-methyl-2-oxo-3,6-dihydroimidazo[4,5-d]pyrrolo[2,3-b]pyridin-1(2H)-yl)cyclopentyl) carbamate] | C (C: ≥20% to <40% degradation)
COC(=O)N[C@@H]1CC[C@@H](n2c(=O)n(C)c3cnc4[nH]c(-c5ccc(C(=O)N6CCN(CC7CCN(c8cccc9c8C(=O)N(C8CCC(=O)NC8=O)C9=O)CC7)CC6)cc5)c(-c5ccc6c(cnn6C(C)C)c5)c4c32)C1 (stereo partly drawn) [Example 38, methyl ((1R,3R)-3-(7-(4-(4-((1-(2-(2,6-dioxopiperidin-3-yl)-1,3-dioxoisoindolin-4-yl)piperidin-4-yl)methyl)piperazine-1-carbonyl)phenyl)-8-(1-isopropyl-1H-indazol-5-yl)-3-methyl-2-oxo-3,6-dihydroimidazo[4,5-d]pyrrolo[2,3-b]pyridin-1(2H)-yl)cyclopentyl) carbamate] | A (A: ≥600% degradation)
COC(=O)N[C@@H]1CC[C@@H](n2c(=O)n(C)c3cnc4[nH]c(-c5cnn(CC(=O)N6CCC(CN7CCN(c8cccc9c8C(=O)N(C8CCC(=O)NC8=O)C9=O)CC7)CC6)c5)c(-c5ccc6c(cnn6C(C)C)c5)c4c32)C1 (stereo partly drawn) [Example 40, methyl ((1R,3R)-3-(7-(1-(2-(4-((4-(2-(2,6-dioxopiperidin-3-yl)-1,3-dioxoisoindolin-4-yl)piperazin-1-yl)methyl)piperidin-1-yl)-2-oxoethyl)-1H-pyrazol-4-yl)-8-(1-isopropyl-1H-indazol-5-yl)-3-methyl-2-oxo-3,6-dihydroimidazo[4,5-d]pyrrolo[2,3-b]pyridin-1(2H)-yl)cyclopentyl) carbamate] | C (C: ≥20% to <40% degradation)
COC(=O)N[C@@H]1CC[C@@H](n2c(=O)n(C)c3cnc4[nH]c(-c5cnn(CC(=O)N6CCC(CN7CCN(c8ccc9c(c8)CN(C8CCC(=O)NC8=O)C9=O)CC7)CC6)c5)c(-c5ccc6c(cnn6C(C)C)c5)c4c32)C1 (stereo partly drawn) [Example 41, methyl ((1R,3R)-3-(7-(1-(2-(4-((4-(2-(2,6-dioxopiperidin-3-yl)-1-oxoisoindolin-5-yl)piperazin-1-yl)methyl)piperidin-1-yl)-2-oxoethyl)-1H-pyrazol-4-yl)-8-(1-isopropyl-1H-indazol-5-yl)-3-methyl-2-oxo-3,6-dihydroimidazo[4,5-d]pyrrolo[2,3-b]pyridin-1(2H)-yl)cyclopentyl) carbamate] | C (C: ≥20% to <40% degradation)
COC(=O)N[C@@H]1CC[C@@H](n2c(=O)n(C)c3cnc4[nH]c(-c5ccc(CN6CCN(CC7CCN(c8cccc9c8C(=O)N(C8CCC(=O)NC8=O)C9=O)CC7)CC6)cc5)c(-c5ccc6c(cnn6C(C)C)c5)c4c32)C1 (stereo partly drawn) [Example 42, Methyl((1R,3R)-3-(7-(4-((4-((1-(2-(2,6-dioxopiperidin-3-yl)-1,3-dioxoisoindolin-4-yl)piperidin-4-yl)methyl)piperazin-1-yl)methyl)phenyl)-8-(1-isopropyl-1H-indazol-5-yl)-3-methyl-2-oxo-3,6-dihydroimidazo[4,5-d]pyrrolo[2,3-b]pyridin-1(2H)-yl)cyclopentyl)carbamate] | A (A: ≥600% degradation)
COC(=O)N[C@@H]1CC[C@@H](n2c(=O)n(C)c3cnc4[nH]c(-c5ccc(CN6CCC(CN7CCN(c8ccc9c(c8)CN(C8CCC(=O)NC8=O)C9=O)CC7)CC6)cc5)c(-c5ccc6c(cnn6C(C)C)c5)c4c32)C1 (stereo partly drawn) [Example 43, Methyl((1R,3R)-3-(7-(4-((4-((4-(2-(2,6-dioxopiperidin-3-yl)-1-oxoisoindolin-5-yl)piperazin-1-yl)methyl)piperidin-1-yl)methyl)phenyl)-8-(1-isopropyl-1H-indazol-5-yl)-3-methyl-2-oxo-3,6-dihydroimidazo[4,5-d]pyrrolo[2,3-b]pyridin-1(2H)-yl)cyclopentyl)carbamate] | A (A: ≥600% degradation)
COC(=O)N[C@@H]1CC[C@@H](n2c(=O)n(C)c3cnc4[nH]c(-c5ccc(CN6CCC(CN7CCN(c8cccc9c8C(=O)N(C8CCC(=O)NC8=O)C9=O)CC7)CC6)cc5)c(-c5ccc6c(cnn6C(C)C)c5)c4c32)C1 (stereo partly drawn) [Example 44, Methyl((1R,3R)-3-(7-(4-((4-((4-(2-(2,6-dioxopiperidin-3-yl)-1,3-dioxoisoindolin-4-yl)piperazin-1-yl)methyl)piperidin-1-yl)methyl)phenyl)-8-(1-isopropyl-1H-indazol-5-yl)-3-methyl-2-oxo-3,6-dihydroimidazo[4,5-d]pyrrolo[2,3-b]pyridin-1(2H)-yl)cyclopentyl)carbamate] | C (C: ≥20% to <40% degradation)

Same assay, conditions: 10 μM compound, 8 hours treatment, western blot densitometry vs. DMSO vehicle

Compound | JAK2 % Degradation in SET2
COC(=O)N[C@@H]1CC[C@@H](n2c(=O)n(C)c3cnc4[nH]c(-c5ccc(C(=O)N6CCC(CN7CCN(c8ccc9c(c8)CN(C8CCC(=O)NC8=O)C9=O)CC7)CC6)cc5)c(-c5ccc6c(cnn6C(C)C)c5)c4c32)C1 (stereo partly drawn) [Example 35, methyl ((1R,3R)-3-(7-(4-(4-((4-(2-(2,6-dioxopiperidin-3-yl)-1-oxoisoindolin-5-yl)piperazin-1-yl)methyl)piperidine-1-carbonyl)phenyl)-8-(1-isopropyl-1H-indazol-5-yl)-3-methyl-2-oxo-3,6-dihydroimidazo[4,5-d]pyrrolo[2,3-b]pyridin-1(2H)-yl)cyclopentyl) carbamate] | A (A: ≥600% degradation)
COC(=O)N[C@@H]1CC[C@@H](n2c(=O)n(C)c3cnc4[nH]c(-c5ccc(C(=O)N6CCC(CN7CCN(c8ccc9c(c8)CN(C8CCC(=O)NC8=O)C9=O)CC7)CC6)c(F)c5)c(-c5ccc6c(cnn6C(C)C)c5)c4c32)C1 (stereo partly drawn) [Example 36, methyl ((1R,3R)-3-(7-(4-(4-((4-(2-(2,6-dioxopiperidin-3-yl)-1-oxoisoindolin-5-yl)piperazin-1-yl)methyl)piperidine-1-carbonyl)-3-fluorophenyl)-8-(1-isopropyl-1H-indazol-5-yl)-3-methyl-2-oxo-3,6-dihydroimidazo[4,5-d]pyrrolo[2,3-b]pyridin-1(2H)-yl)cyclopentyl) carbamate] | A (A: ≥600% degradation)
CN[C@@H](C)C(=O)N[C@H](C(=O)N1C[C@@H](NC(=O)CC2CCN(C(=O)c3ccc(-c4[nH]c5ncc6c(c5c4-c4ccc5c(cnn5C(C)C)c4)n([C@@H]4CC[C@@H](NC(=O)OC)C4)c(=O)n6C)cc3F)CC2)C[C@H]1C(=O)N[C@@H]1CCCc2ccccc21)C1CCCCC1 [Example 46, Methyl((1R,3R)-3-(7-(4-(4-(2-(((3S,5S)-1-((S)-2-cyclohexyl-2-((S)-2-(methylamino)propanamido)acetyl)-5-(((R)-1,2,3,4-tetrahydronaphthalen-1-yl)carbamoyl)pyrrolidin-3-yl)amino)-2-oxoethyl)piperidine-1-carbonyl)-3-fluorophenyl)-8-(1-isopropyl-1H-indazol-5-yl)-3-methyl-2-oxo-3,6-dihydroimidazo[4,5-d]pyrrolo[2,3-b]pyridin-1(2H)-yl)cyclopentyl)carbamate] | D (D: <20% to ≥10%)
